In US20160169850A1, “SENSOR MOLECULE” (University of Malta, priority 2014, published 2016):
Where two headings read alike, the source gives them in different places.

How the values were obtained:
[1] = CH3CN; known sensor; cited from earlier work
[2] = CH3CN; known sensor; cited from earlier work; remark: listed apart in the source
[3] = 1:1 methanol:water, excess H^+ (pH 3), emission at 525 nm
[4] = for Fluorescent Output: 1:1 MeOH:H2O

Molecule | Quantum Yield (ΦF) [1] | Fluorescent Enhancement (FE) [2] | −log [Fe^3+] at equivalence point [3] | Output emission, logic level (Condition A: H^+ low, Fe^3+ low) | Output emission, logic level (Condition B: 0.2 mM H^+, Fe^3+ low) | Output emission, logic level (Condition C: H^+ low, 10 μM Fe(III)) | Output emission, logic level (Condition D: 0.2 mM H^+ and 10 μM Fe(III)) | visual output under UV lamp ([4]; 365 nm light, high acid and Fe(III), 1:1 methanol/water) | Fluorescent Output ([4]; Condition A: no inputs) | Fluorescent Output ([4]; Condition D: Fe(III) and H^+ both) | fluorescence enhancement ([4]; both inputs versus no input or one input, 1:1 methanol:water) [fold]
CN(CC1=CSC(=C2SC=CS2)S1)Cc1c2ccccc2cc2ccccc12 [Compound 2] | 0.015 | 5 |  |  |  |  |  |  |  |  | 
N-ferrocenyl-4-methylpiperazine-1,8-naphthalimide [Compound 5] |  |  | 5.1 | low (Output is considered high when >0.050) | low (Output is considered high when >0.050) | low (Output is considered high when >0.050) | high (Output is considered high when >0.050) | bright green fluorescent | Low | High | 19
